Patent US5308581A, “Substance of an optical fluorescence measuring arrangement for measuring the pH of a sample and optical sensor with such an indicator substance” (AVL Medical Instruments AG, priority 1990, dated 1994)
Where two headings read alike, the source gives them in different places.

Experiments:
Assay type in all cases: physicochemical
[1] = acid dissociation of the indicator in its electronically excited state (pKa *); details: for pKa * value in the excited state exceeds the pKa value in the ground state by: increase
Description: S and .tau.B of the acidic forms (AH*, BH^+*) and basic forms (S^-*, B*) of the indicator differ from each other. In both fundamental instances the measured luminescence decay time .tau. is a function of the luminescence decay times .tau.B and .tau.S, their weighting depending on the pH prevailing in the sample.
The pKa * value of the electronically excited acid (AH* or BH^+*) is in the relevant measuring range.

[2] = excitation/emission maxima of the acidic and basic forms of the indicator; details: for emission maximum basic form / excitation maximum basic form: B; for emission maximum conjugate acidic form / excitation maximum conjugate acidic form: BH^+; for emission maximum acidic form / excitation maximum acidic form: AH; for emission maximum conjugate basic form / excitation maximum conjugate basic form: A^-
Method: (§1) In an embodiment of the invention referring to item 1, the indicator is immobilized on a solid substrate, for example, and is brought into contact with the sample. […] After separation of the exciting light by means of a cut-off filter, fluorescence is detected over a broad band of the spectrum (for instance, by means of a photomultiplier or a pin photodiode) and decay time is measured electronically. As dissociation takes place in the ground state, both the absorption spectrum and the fluorescence spectrum are modified, which will have no negative effect on the measurement, however, due to the broad-band character of excitation and detection, or rather, due to the choice of the excitation wavelength in the overlap region of the absorption spectra and the broad detection band. Via a stored calibrating function the recorded decay times may be converted into pH values by a computer.
(§2) In an embodiment of the invention referring to item 2, a suitable indicator is immobilized on a solid substrate, and is dipped into the sample. Excitation takes place monochromatically with the use of a short-time light source (e.g., a coaxial flashlamp) and a color filter tuned to the absorption wavelength of the indicator (e.g., an interference filter). After separation of the exciting light by means of a cut-off filter, emission is detected over a broad band of the spectrum (for instance, by means of a photomultiplier or a pin photodiode). The pH value again is determined from the measured decay time via a stored calibrating function.

[3] = luminescence decay time of the acidic and basic forms of the indicator in the excited state; details: for luminescence decay time excited state .tau.(B*): excited base B*; for luminescence decay time excited state .tau.(BH+*): excited conjugate acid BH^+*; for luminescence decay time excited state .tau.(AH*): excited acid AH*; for luminescence decay time excited state .tau.(A-*): excited conjugate base A^-*
Method: .tau. lifetime of the excited state (luminescence
as §1, §2

[4] = acid dissociation of the indicator in its electronic ground state (pKa); details: for pKa acidic form (BH^+) in ground state: indicator base, conjugate acid BH^+; for pKa acidic form (AH) in ground state: indicator acid AH
Description: Ka acid constant (dissociation equilibrium
pK value of an acid or conjugate acid
The pKa value of the electronically non-excited acid (AH or BH^+) is in the relevant measuring range.

[5] = pH measuring range of the indicator via luminescence decay time
Method: as §1, §2

[6] = excited vs ground state, decrease

c1ccc2nc3ccccc3cc2c1 [Acridine]
pKa * value in the excited state exceeds the pKa value in the ground state by ([1]; excited vs ground state): 5.25 units
emission maximum basic form [2]: 430 nm
excitation maximum basic form [2]: 356 nm
emission maximum conjugate acidic form [2]: 475 nm
excitation maximum conjugate acidic form [2]: 356 nm
luminescence decay time excited state .tau.(B*) [3]: 14 ns
luminescence decay time excited state .tau.(BH+*) [3]: 33 ns
pKa acidic form (BH^+) in ground state [4]: 5.45
measuring range [5]: 4.0-7.0 pH

O=C(O)Cc1c[nH]c2ccccc12 [3-indolylacetic acid]
pKa * value in the excited state is lower than the pKa value in the ground state by [1]: approx. 2 units
emission maximum acidic form [2]: 340 nm
excitation maximum acidic form [2]: 278 nm
emission maximum conjugate basic form [2]: 340 nm
excitation maximum conjugate basic form [2]: 285 nm
luminescence decay time excited state .tau.(AH*) [3]: 2.5 ns
luminescence decay time excited state .tau.(A-*) [3]: 9.0 ns
pKa acidic form (AH) in ground state [4]: ~3
measuring range [5]: 2-4 pH

O=c1c2ccccc2[nH]c2ccccc12 [9(10H)-acridone]
pKa * value in the excited state exceeds the pKa value in the ground state by ([1]; excited vs ground state): 1.7 units
emission maximum basic form [2]: 440 nm
excitation maximum basic form [2]: 383 nm
emission maximum conjugate acidic form [2]: 456 nm
excitation maximum conjugate acidic form [2]: 399 nm
luminescence decay time excited state .tau.(B*) [3]: 26 ns
luminescence decay time excited state .tau.(BH+*) [3]: 15 ns
pKa acidic form (BH^+) in ground state [4]: 0.02
measuring range [5]: 0.5-2.5 pH

O=Cc1ccccc1O [Salicylaldehyde]
pKa * value in the excited state is lower than the pKa value in the ground state by [1, 6]: approx. 6.5 units
emission maximum acidic form [2]: 525 nm
excitation maximum acidic form [2]: 327 nm
emission maximum conjugate basic form [2]: 400 nm
excitation maximum conjugate basic form [2]: 380 nm
luminescence decay time excited state .tau.(AH*) [3]: < 1 ns
luminescence decay time excited state .tau.(A-*) [3]: ~3 ns
pKa acidic form (AH) in ground state [4]: ~8.5
measuring range [5]: 7-10 pH

Oc1ccc2ccccc2c1 [Example 2-naphthol, 2-naphthol]
pKa * value in the excited state is lower than the pKa value in the ground state by [1, 6]: 7 units
emission maximum acidic form [2]: 356 nm
excitation maximum acidic form [2]: 328 nm
emission maximum conjugate basic form [2]: 410 nm
excitation maximum conjugate basic form [2]: 348 nm
luminescence decay time excited state .tau.(AH*) [3]: 9.0 ns
luminescence decay time excited state .tau.(A-*) [3]: 4.8 ns
pKa acidic form (AH) in ground state [4]: ~9.8
measuring range [5]: 1.2-4.3 pH
